Source: patent US20240043427A1 (Gilead Sciences, Inc., priority 2020, published 2024)
pEC50, pIC50: −log10 of the molar value.

Legend:
[1] = molecular target: T1, CD73 (Homo sapiens (Human), UniProt P21589); assay type: biochemical; details: 1 mM NaH2PO4 in enzyme buffer, CD73 0.3 nM, AMP 15 uM
[2] = molecular target: T1, CD73; test: MDA-MB-231 Cell Based CD73 Activity Assay (DMEM); details: MDA-MB-231-GFP cells, DMEM medium with 10% human plasma, 200 uM AMP

T1 sequence (P21589 27-574): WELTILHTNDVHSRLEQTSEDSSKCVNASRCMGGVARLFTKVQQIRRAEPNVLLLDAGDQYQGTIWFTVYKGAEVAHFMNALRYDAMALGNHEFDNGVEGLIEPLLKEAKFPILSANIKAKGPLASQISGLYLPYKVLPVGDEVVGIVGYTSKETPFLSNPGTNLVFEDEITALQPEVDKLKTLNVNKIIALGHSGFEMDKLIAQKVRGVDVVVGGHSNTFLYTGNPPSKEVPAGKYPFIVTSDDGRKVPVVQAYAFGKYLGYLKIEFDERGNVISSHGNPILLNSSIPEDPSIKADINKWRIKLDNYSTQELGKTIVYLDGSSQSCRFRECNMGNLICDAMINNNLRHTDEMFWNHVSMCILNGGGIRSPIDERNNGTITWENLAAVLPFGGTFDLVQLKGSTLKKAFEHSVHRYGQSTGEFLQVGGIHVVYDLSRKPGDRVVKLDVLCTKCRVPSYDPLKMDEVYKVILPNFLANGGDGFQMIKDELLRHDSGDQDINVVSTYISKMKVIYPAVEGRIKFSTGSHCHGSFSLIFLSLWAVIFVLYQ

Structure (SMILES)	pIC50 [1]	pEC50 [2]
O=C(NC12CC(C(F)(F)F)(C1)C2)O[C@H]1CN(c2cc(-c3c[nH]c(=O)[nH]c3=O)nn3c(F)cnc23)CC1(F)F [Example 665, (S)-1-(6-(2,4-dioxo-1,2,3,4-tetrahydropyrimidin-5-yl)-3-fluoroimidazo[1,2-b]pyridazin-8-yl)-4,4-difluoropyrrolidin-3-yl (3-(trifluoromethyl)bicyclo[1.1.1]pentan-1-yl)carbamate]	8.84	8.55
O=c1[nH]cc(-c2cc(N3C[C@H](Oc4cc(C(F)(F)F)cnn4)C(F)(F)C3)c3ncc(F)n3n2)c(=O)[nH]1 [Example 666, (S)-5-(8-(3,3-difluoro-4-((5-(trifluoromethyl)pyridazin-3-yl)oxy)pyrrolidin-1-yl)-3-fluoroimidazo[1,2-b]pyridazin-6-yl)pyrimidine-2,4(1H,3H)-dione]	8.74	8.55
CC(C)CNc1cc(-c2c[nH]c(=O)[nH]c2=O)nn2ccnc12 [Example 667, 5-(8-(isobutylamino)imidazo[1,2-b]pyridazin-6-yl)pyrimidine-2,4(1H,3H)-dione]	7.00	6.38
CC(C)(C)CNc1cc(-c2c[nH]c(=O)[nH]c2=O)nn2ccnc12 [Example 668, 5-(8-(neopentylamino)imidazo[1,2-b]pyridazin-6-yl)pyrimidine-2,4(1H,3H)-dione]	< 6.60	6.07
COCCNc1cc(-c2c[nH]c(=O)[nH]c2=O)nn2ccnc12 [Example 669, 5-(8-((2-methoxyethyl)amino)imidazo[1,2-b]pyridazin-6-yl)pyrimidine-2,4(1H,3H)-dione]	< 6.60	6.16
O=c1[nH]cc(-c2cc(NCC(F)F)c3nccn3n2)c(=O)[nH]1 [Example 670, 5-(8-((2,2-difluoroethyl)amino)imidazo[1,2-b]pyridazin-6-yl)pyrimidine-2,4(1H,3H)-dione]	6.81	6.24
COc1ccc(CN(CC(F)F)c2cc(-c3c[nH]c(=O)[nH]c3=O)nn3ccnc23)cc1 [Example 671, 5-(8-((2,2-difluoroethyl)(4-methoxybenzyl)amino)imidazo[1,2-b]pyridazin-6-yl)pyrimidine-2,4(1H,3H)-dione]	< 6.60	5.79
O=c1[nH]cc(-c2cc(NCC(F)(F)F)c3nccn3n2)c(=O)[nH]1 [Example 672, 5-(8-((2,2,2-trifluoroethyl)amino)imidazo[1,2-b]pyridazin-6-yl)pyrimidine-2,4(1H,3H)-dione]	6.83	6.42
O=c1[nH]cc(-c2cc(OCCc3ccccc3)c3nccn3n2)c(=O)[nH]1 [Example 673, 5-(8-phenethoxyimidazo[1,2-b]pyridazin-6-yl)pyrimidine-2,4(1H,3H)-dione]	8.26	7.50
CC(COc1cc(-c2c[nH]c(=O)[nH]c2=O)nn2ccnc12)c1ccccc1 (stereo not drawn) [Example 674, 5-(8-(2-phenylpropoxy)imidazo[1,2-b]pyridazin-6-yl)pyrimidine-2,4(1H,3H)-dione]	7.79	7.32
O=c1[nH]cc(-c2cc(OCC(F)(F)F)c3nccn3n2)c(=O)[nH]1 [Example 675, 5-(8-(2,2,2-trifluoroethoxy)imidazo[1,2-b]pyridazin-6-yl)pyrimidine-2,4(1H,3H)-dione]	7.31	7.10
CC(C)(COc1cc(-c2c[nH]c(=O)[nH]c2=O)nn2ccnc12)C(F)(F)F [Example 676, 5-(8-(3,3,3-trifluoro-2,2-dimethylpropoxy)imidazo[1,2-b]pyridazin-6-yl)pyrimidine-2,4(1H,3H)-dione]	6.85	6.37
CC(F)(F)COc1cc(-c2c[nH]c(=O)[nH]c2=O)nn2ccnc12 [Example 677, 5-(8-(2,2-difluoropropoxy)imidazo[1,2-b]pyridazin-6-yl)pyrimidine-2,4(1H,3H)-dione]	7.91	7.65
CC(C)COc1cc(-c2c[nH]c(=O)[nH]c2=O)nn2ccnc12 [Example 678, 5-(8-isobutoxyimidazo[1,2-b]pyridazin-6-yl)pyrimidine-2,4(1H,3H)-dione]	7.62	7.41
CCC(F)(F)COc1cc(-c2c[nH]c(=O)[nH]c2=O)nn2ccnc12 [Example 688, 5-(8-(2,2-difluorobutoxy)imidazo[1,2-b]pyridazin-6-yl)pyrimidine-2,4(1H,3H)-dione]	8.15	7.47

More lines, now with the values ahead:

pIC50 [1]	pEC50 [2]	Structure (SMILES)
6.65	6.34	CC(C)C(C)Oc1cc(-c2c[nH]c(=O)[nH]c2=O)nn2ccnc12 (stereo not drawn) [Example 680, 5-(8-((3-methylbutan-2-yl)oxy)imidazo[1,2-b]pyridazin-6-yl)pyrimidine-2,4(1H,3H)-dione]
7.21	7.03	O=c1[nH]cc(-c2cc(OCCC(F)(F)F)c3nccn3n2)c(=O)[nH]1 [Example 681, 5-(8-(3,3,3-trifluoropropoxy)imidazo[1,2-b]pyridazin-6-yl)pyrimidine-2,4(1H,3H)-dione]
8.80	7.75	O=c1[nH]cc(-c2cc(OCC(F)(F)c3ccccc3)c3nccn3n2)c(=O)[nH]1 [Example 682, 5-(8-(2,2-difluoro-2-phenylethoxy)imidazo[1,2-b]pyridazin-6-yl)pyrimidine-2,4(1H,3H)-dione]
8.88	7.96	C#CC1(C)CCN(c2cc(-c3c[nH]c(=O)[nH]c3=O)nn3ccnc23)C1 (stereo not drawn) [Example 683, 5-(8-(3-ethynyl-3-methylpyrrolidin-1-yl)imidazo[1,2-b]pyridazin-6-yl)pyrimidine-2,4(1H,3H)-dione]
8.89	8.23	C#CC1CCN(c2cc(-c3c[nH]c(=O)[nH]c3=O)nn3ccnc23)C1 (stereo not drawn) [Example 684, 5-(8-(3-ethynylpyrrolidin-1-yl)imidazo[1,2-b]pyridazin-6-yl)pyrimidine-2,4(1H,3H)-dione]
< 6.60	6.26	CC(C)(O)C#Cc1cc(-c2c[nH]c(=O)[nH]c2=O)nn2ccnc12 [Example 685, 5-(8-(3-hydroxy-3-methylbut-1-yn-1-yl)imidazo[1,2-b]pyridazin-6-yl)pyrimidine-2,4(1H,3H)-dione]
7.35	6.54	CC(C)(C)C#Cc1cc(-c2c[nH]c(=O)[nH]c2=O)nn2ccnc12 [Example 686, 5-(8-(3,3-dimethylbut-1-yn-1-yl)imidazo[1,2-b]pyridazin-6-yl)pyrimidine-2,4(1H,3H)-dione]
8.06	7.27	O=c1[nH]cc(-c2cc(OCC(F)(F)CO)c3nccn3n2)c(=O)[nH]1 [Example 687, 5-(8-(2,2-difluoro-3-hydroxypropoxy)imidazo[1,2-b]pyridazin-6-yl)pyrimidine-2,4(1H,3H)-dione]
8.52	7.98	O=c1[nH]cc(-c2cc(OCC(F)(F)C3CC3)c3nccn3n2)c(=O)[nH]1 [Example 689, 5-(8-(2-cyclopropyl-2,2-difluoroethoxy)imidazo[1,2-b]pyridazin-6-yl)pyrimidine-2,4(1H,3H)-dione]
7.90	7.66	O=c1[nH]cc(-c2cc(OCC(F)(F)C(F)(F)F)c3nccn3n2)c(=O)[nH]1 [Example 690, 5-(8-(2,2,3,3,3-pentafluoropropoxy)imidazo[1,2-b]pyridazin-6-yl)pyrimidine-2,4(1H,3H)-dione]
7.36	6.46	C[C@H](COc1cc(-c2c[nH]c(=O)[nH]c2=O)nn2ccnc12)c1ccccc1 [Example 691, (S)-5-(8-(2-phenylpropoxy)imidazo[1,2-b]pyridazin-6-yl)pyrimidine-2,4(1H,3H)-dione]
8.49	7.64	O=c1[nH]cc(-c2cc(OCC(F)(F)c3ccccn3)c3nccn3n2)c(=O)[nH]1 [Example 692, 5-(8-(2,2-difluoro-2-(pyridin-2-yl)ethoxy)imidazo[1,2-b]pyridazin-6-yl)pyrimidine-2,4(1H,3H)-dione]
8.01	7.31	Cn1ccnc1C(F)(F)COc1cc(-c2c[nH]c(=O)[nH]c2=O)nn2ccnc12 [Example 693, 5-(8-(2,2-difluoro-2-(1-methyl-1H-imidazol-2-yl)ethoxy)imidazo[1,2-b]pyridazin-6-yl)pyrimidine-2,4(1H,3H)-dione]
9.21	9.64	CC(C)NC(=O)OCC(F)(F)COc1cc(-c2c[nH]c(=O)[nH]c2=O)nn2ccnc12 [Example 694, 3-((6-(2,4-dioxo-1,2,3,4-tetrahydropyrimidin-5-yl)imidazo[1,2-b]pyridazin-8-yl)oxy)-2,2-difluoropropyl isopropylcarbamate]
8.74	7.76	O=c1[nH]cc(-c2cc(OCC(F)(F)COc3ccccn3)c3nccn3n2)c(=O)[nH]1 [Example 695, 5-(8-(2,2-difluoro-3-(pyridin-2-yloxy)propoxy)imidazo[1,2-b]pyridazin-6-yl)pyrimidine-2,4(1H,3H)-dione]
9.29	6.98	O=C(OCC(F)(F)F)OCC(F)(F)COc1cc(-c2c[nH]c(=O)[nH]c2=O)nn2ccnc12 [Example 696, 3-((6-(2,4-dioxo-1,2,3,4-tetrahydropyrimidin-5-yl)imidazo[1,2-b]pyridazin-8-yl)oxy)-2,2-difluoropropyl (2,2,2-trifluoroethyl) carbonate]
9.19	9.57	O=c1[nH]cc(-c2cc([C@H]3C[C@@H]3c3ccc4c(F)nn(CC(F)(F)F)c4c3)c3ncc(F)n3n2)c(=O)[nH]1 [Example 697, 5-(3-fluoro-8-((1S,2S)-2-(3-fluoro-1-(2,2,2-trifluoroethyl)-1H-indazol-6-yl)cyclopropyl)imidazo[1,2-b]pyridazin-6-yl)pyrimidine-2,4(1H,3H)-dione]
8.42	9.09	CC1(C)C(=O)N(CC(F)(F)F)c2cc([C@H]3C[C@@H]3c3cc(-c4c[nH]c(=O)[nH]c4=O)nn4ccnc34)cnc21 [Example 698, 5-(8-((1S,2S)-2-(3,3-dimethyl-2-oxo-1-(2,2,2-trifluoroethyl)-2,3-dihydro-1H-pyrrolo[3,2-b]pyridin-6-yl)cyclopropyl)imidazo[1,2-b]pyridazin-6-yl)pyrimidine-2,4(1H,3H)-dione]
